In brackets after ≈: the same amount, converted by molar mass.
How the values were obtained:
Assay in all cases: in vitro antibacterial evaluation, MIC by broth dilution
Format in all cases: cell-based
[1] = system: Streptococcus sp.; settings: broth dilution, 18 hours at 35° C.
In short: (§1)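 Step 1: dilute antibiotic across 64-0.06 μg/mL in Muller-Hinton II […]. Step 2: inoculate at 5×10^5 CFU/mL.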

[2] = system: Enterococcus sp.; settings: broth dilution, 18 hours at 35° C.
In short: as §1

[3] = system: Staphylococcus sp.; settings: broth dilution, 18 hours at 35° C.
In short: as §1

[4] = system: Escherichia coli; settings: 18 hours at 35° C.

MIC Streptococcus agalactiae (GC 4564) [1]: 16 µg/mL (≈ 10.1 µM) | MIC Streptococcus pneumoniae (ATCC 6301) [1]: 8 µg/mL (≈ 5.05 µM) | MIC Streptococcus pneumoniae (GC 1894) [1]: 8 µg/mL (≈ 5.05 µM) | MIC Streptococcus pneumoniae (GC 4565) [1]: 8 µg/mL (≈ 5.05 µM) | MIC Streptococcus pyogenes (GC 4563) [1]: 8 µg/mL (≈ 5.05 µM) | MIC Streptococcus pneumoniae (ATCC 6301) ([1]; inoculum 5×10^5 CFU/mL, strain ATCC 6301): 8 µg/mL (≈ 5.05 µM) | MIC Streptococcus pneumoniae (GC 1894) ([1]; inoculum 5×10^5 CFU/mL, strain GC 1894): 8 µg/mL (≈ 5.05 µM) | MIC Streptococcus pyogenes (GC 4563) ([1]; inoculum 5×10^5 CFU/mL, strain GC 4563): 8 µg/mL (≈ 5.05 µM) | MIC Streptococcus agalactiae (GC 4564) ([1]; inoculum 5×10^5 CFU/mL, strain GC 4564): 16 µg/mL (≈ 10.1 µM) | MIC Streptococcus pneumoniae (GC 4565) ([1]; inoculum 5×10^5 CFU/mL, strain GC 4565): 8 µg/mL (≈ 5.05 µM) | MIC Enterococcus avium (GC 4558) [2]: 8 µg/mL (≈ 5.05 µM) | MIC Enterococcus faecalis (ATCC 29212) [2]: 32 µg/mL (≈ 20.2 µM) | MIC Enterococcus faecalis (GC 2242) [2]: 32 µg/mL (≈ 20.2 µM) | MIC Enterococcus faecalis (GC 2691) [2]: 32 µg/mL (≈ 20.2 µM) | MIC Enterococcus faecalis (GC 3059) [2]: 32 µg/mL (≈ 20.2 µM) | MIC Enterococcus faecalis (GC 4552) [2]: 32 µg/mL (≈ 20.2 µM) | MIC Enterococcus faecalis (GC 4553) [2]: 16 µg/mL (≈ 10.1 µM) | MIC Enterococcus faecalis (GC 4554) [2]: 32 µg/mL (≈ 20.2 µM) | MIC Enterococcus faecalis (GC 6189) [2]: 32 µg/mL (≈ 20.2 µM) | MIC Enterococcus faecium (GC 2243) [2]: 16 µg/mL (≈ 10.1 µM) | MIC Enterococcus faecium (GC 4556) [2]: 32 µg/mL (≈ 20.2 µM) | MIC Enterococcus faecium (GC 4557) [2]: 16 µg/mL (≈ 10.1 µM) | MIC Enterococcus faecalis (ATCC 29212) ([2]; inoculum 5×10^5 CFU/mL, strain ATCC 29212): 32 µg/mL (≈ 20.2 µM) | MIC Enterococcus faecalis (GC 2242) ([2]; inoculum 5×10^5 CFU/mL, strain GC 2242): 32 µg/mL (≈ 20.2 µM) | MIC Enterococcus faecium (GC 2243) ([2]; inoculum 5×10^5 CFU/mL, strain GC 2243): 16 µg/mL (≈ 10.1 µM) | MIC Enterococcus faecalis (GC 2691) ([2]; inoculum 5×10^5 CFU/mL, strain GC 2691): 32 µg/mL (≈ 20.2 µM) | MIC Enterococcus faecalis (GC 3059) ([2]; inoculum 5×10^5 CFU/mL, strain GC 3059): 32 µg/mL (≈ 20.2 µM) | MIC Enterococcus faecalis (GC 4552) ([2]; inoculum 5×10^5 CFU/mL, strain GC 4552): 32 µg/mL (≈ 20.2 µM) | MIC Enterococcus faecalis (GC 4553) ([2]; inoculum 5×10^5 CFU/mL, strain GC 4553): 16 µg/mL (≈ 10.1 µM) | MIC Enterococcus faecalis (GC 4554) ([2]; inoculum 5×10^5 CFU/mL, strain GC 4554): 32 µg/mL (≈ 20.2 µM) | MIC Enterococcus faecium (GC 4556) ([2]; inoculum 5×10^5 CFU/mL, strain GC 4556): 32 µg/mL (≈ 20.2 µM) | MIC Enterococcus faecium (GC 4557) ([2]; inoculum 5×10^5 CFU/mL, strain GC 4557): 16 µg/mL (≈ 10.1 µM) | MIC Enterococcus avium (GC 4558) ([2]; inoculum 5×10^5 CFU/mL, strain GC 4558): 8 µg/mL (≈ 5.05 µM) | MIC Enterococcus faecalis (GC 6189) ([2]; inoculum 5×10^5 CFU/mL, strain GC 6189): 32 µg/mL (≈ 20.2 µM) | MIC Coagulase Negative Staphylococcus (GC 4547) [3]: 16 µg/mL (≈ 10.1 µM) | MIC Coagulase Negative Staphylococcus (GC 4548) [3]: 16 µg/mL (≈ 10.1 µM) | MIC Coagulase Negative Staphylococcus (GC 4549) [3]: 16 µg/mL (≈ 10.1 µM) | MIC Coagulase Negative Staphylococcus (GC 4551) [3]: 16 µg/mL (≈ 10.1 µM) | MIC Staphylococcus aureus-SMITH (GC 4543) [3]: 32 µg/mL (≈ 20.2 µM) | MIC Staphylococcus aureus-SMITH (GC 4543) ([3]; strain GC 4543): 32 µg/mL (≈ 20.2 µM) | MIC Coagulase Negative Staphylococcus (GC 4547) ([3]; strain GC 4547): 16 µg/mL (≈ 10.1 µM) | MIC Coagulase Negative Staphylococcus (GC 4548) ([3]; strain GC 4548): 16 µg/mL (≈ 10.1 µM) | MIC Coagulase Negative Staphylococcus (GC 4549) ([3]; strain GC 4549): 16 µg/mL (≈ 10.1 µM) | MIC Coagulase Negative Staphylococcus (GC 4551) ([3]; strain GC 4551): 16 µg/mL (≈ 10.1 µM) | MIC Staphylococcus aureus (ATCC 29213) ([3]; strain ATCC 29213): 32 µg/mL (≈ 20.2 µM) | MIC Staphylococcus aureus (GC 1131) ([3]; strain GC 1131): 32 µg/mL (≈ 20.2 µM) | MIC Staphylococcus aureus (GC 3051) ([3]; strain GC 3051): 32 µg/mL (≈ 20.2 µM) | MIC Staphylococcus aureus (GC 3053) ([3]; strain GC 3053): 32 µg/mL (≈ 20.2 µM) | MIC Staphylococcus aureus (GC 4541) ([3]; strain GC 4541): 32 µg/mL (≈ 20.2 µM) | MIC Staphylococcus aureus (GC 4542) ([3]; strain GC 4542): 32 µg/mL (≈ 20.2 µM) | MIC Staphylococcus aureus (GC 4544) ([3]; strain GC 4544): 32 µg/mL (≈ 20.2 µM) | MIC Staphylococcus aureus (GC 4545) ([3]; strain GC 4545): 32 µg/mL (≈ 20.2 µM) | MIC Escherichia coli (ATCC 25922) [4]: >64 µg/mL | MIC Escherichia coli (GC 4559) [4]: >64 µg/mL | MIC Escherichia coli (GC 4560) [4]: 16 µg/mL (≈ 10.1 µM)
SMILES: CC(c1ccccc1)C1NC(=O)CNC(=O)C(CO)NC(=O)C(C(O)C2CN(c3ncccn3)C(=N)N2C2OC(CO)C(O)C(O)C2O)NC(=O)C(C(O)C2CNC(=Nc3ncccn3)N2)NC(=O)C(Cc2ccc(OC3OC(CO)C(OC4OC5COC6(OC5C(O)C4O)C4CC5CC(C4)CC6C5)C(O)C3O)cc2)NC1=O (stereo not drawn) [Example 228]
MIC Staphylococcus haemolyticus (GC 4546) [3]: 16 µg/mL (≈ 10.1 µM) | MIC Staphylococcus haemolyticus (GC 4546) ([3]; strain GC 4546): 16 µg/mL (≈ 10.1 µM)
